The nature of data set [1]: pH of freshly dissolved colimycin solutions over time. Format: physicochemical. Conditions: 10.0, 15.0 and 20.0 mg/ml in water, all cases. Here is the method: Acidic stability of the colimycin solution was determined according to Example 11. Briefly, colimycin (405 mg) was freshly dissolved in water to achieve 10.0 mg/ml, 15.0 mg/ml, and 20.0 mg/ml solutions. These values correspond to concentrations of 3.7 mg/ml, 5.6 mg/ml and 7.4 mg/ml colistin base equivalent. Solution pH was monitored continuously at various times from 1 minute to 180 minutes and pH values and times were recorded.
The pH of freshly dissolved colimycin was determined by weighing a freshly opened vial of Coly-Mycin M Parenteral, Parke-Davis, lot# 01966P, containing 405 mg into 20 ml glass screwcap scintillation vials and adding an appropriate volume of sterile irrigation water to achieve 10.0 mg/ml, 15.0 mg/ml, and 20.0 mg/ml solutions. These values correspond to concentrations of 3.7 mg/ml, 5.6 mg/ml and 7.4 mg/ml colistin base equivalent. Solution pH was then monitored continuously using a Beckman Phi-10 pH meter fitted with a Beckman Futura Plus combination electrode calibrated at pH 4.0 and 7.0 as per manufacturer's instructions prior to use. At various times from 1 minute to 180 minutes, pH values and times were recorded.

For data set [2] the following is noted: 2,000,000 units nebulized; cited from earlier work.
Data set [3] can be described thus: Jet nebulization (Pari LC Jet) with laser diffraction aerosol characterization. Type of data set: physicochemical. Conditions: Pari LC Jet nebulizer, n=3. Here is the method:
Colimycin was freshly dissolved in 37.5 mM NaCl at a concentration of 20 mg/ml colistin base equivalent immediately prior to nebulization. Colistin component IV sulfate was dissolved in 120 mM sodium chloride, and the pH was adjusted to 7.0 with 1 molar sodium hydroxide.
Four ml of solution to be nebulized was placed in a Pari LC Jet nebulizer fitted with a Pulmonaide Compressor (DeVilbiss Model 5650D) with an air flow rate of 4-6 liters/minute. Aerosols generated are characterized by passing through a laser diffraction particle analyzer (Malvern Mastersizer X). Each formulation was analyzed multiple times to determine reproducibility of results, which were expressed as total obscuration time, mass median average diameter, and respirable fraction.
In order to characterize colistin aerosols, and to investigate differences between the colimycin and colistin aerosol formulations, comparisons of the aerosolization of 150 mM (isotonic) NaCl alone, 20 mg/ml colistin component IV sulfate in 120 mM or 20 mg/ml colimycin in […] NaCl were made. Results are shown in FIG. 18, which is a comparison of the times required for aerosolization of 4 mL of the three solutions. The two drug solutions were analyzed three times, and saline was analyzed four times. Bars show standard deviations of measurements.
Colimycin was freshly dissolved in 37.5 mM […] NaCl at a concentration of 20 mg (colistin base equivalents)/ml solution immediately prior to nebulization. […]
Four ml of solution to be nebulized was placed in a Pari LC Jet nebulizer fitted with a Pulmonaide Compressor, DeVilbiss Model 5650D, with an air flow rate of 4-6 liters/minute. […] Each formulation was analyzed multiple times to determine reproducibility of results, which were expressed as total obscuration time, mass median particle diameter, and respirable fraction.
Mass median particle diameters were expressed as average ±standard deviation (n) for aerosols.
Average respirable fractions were calculated as average percentage of particles ranging from 1 micron to 6 microns in diameter within the aerosol over time.

The conditions of data set [4]: systemic intravenous, acute pulmonary exacerbation; cited from earlier work.
Data set [5] has as its system Pseudomonas aeruginosa. Description: Time kill kinetic study of bactericidal activity. Format: cell-based. Here is the method: Comparison of anti-Pseudomonas aeruginosa activities of colimycin and colistin hydrochloride was performed using time kill kinetic studies as described in Antimicrobial Susceptibility Testing, Section 5.16.: Tests to assess bactericidal activity, Clinical Microbiology Procedure Handbook, Ed. Henry D. Isenberg, ASM, Washington, DC (1992). The exact procedure is described in Example 14.
Briefly, tests were similar to those used for determining MICs, except that the final test volume was larger (10 mL) to allow sampling at various time points. Parenteral colimycin was freshly diluted immediately before testing. Cultures were incubated at 37° C. At initial set-up and at various time-points, cultures were plated, with or without further dilution, onto sheep blood agar plates. Plates were incubated for 18-24 hours, and the number of CFU/mL was determined and plotted to determine the percentage of surviving organisms and the time required to achieve 99.9% killing. Results are seen in FIG. 15.
In this study, Pseudomonas aeruginosa organisms were exposed to varying concentrations of colistin or colimycin as indicated in FIG. 15. Concentrations of colimycin were between 8-64 μg/ml. Concentrations of colistin component IV hydrochloride were 0.25 and 0.5 μg/ml, that is 32-256 (for 0.25 μg/ml) and 16-128 (for 0.5 μg/ml) times lower that concentrations of colimycin. Colony-forming unit (CFU) per ml were determined and plotted against drug exposure time in hours.
Time kill kinetic studies were performed as described in (Antimicrobial Susceptibility Testing, Section 5.16. Tests to assess bactericidal activity, in Clinical Microbiology Procedure Handbook (supra).
Tests were set in the same way used for determining MICs (Example 13), except that the final test volume was larger (10 mL) to allow sampling at various time points. Cultures were incubated at 37° C. At initial set-up and at various desired time-points, cultures were sampled and plated (with or without further dilution) onto sheep blood agar plates. Plates were incubated for 18-24 hours, and the number of CFU/mL was determined and plotted to determine the percentage of surviving organisms and the time required to achieve 99.9% killing.

For data set [6] the following is noted: in situ in the recipient patient body; cited from earlier work.
In data set [7] the test system is Pseudomonas aeruginosa. Conditions: cited from earlier work.
Where [8] appears, read: 20 mg/ml, average±standard deviation.

This is an account of results in patent publication US5767068A, “Pure biologically active colistin, its components and a colistin formulation for treatment of pulmonary infections” (Pathogenesis Corporation, priority 1997, dated 1998).

Take colimycin: in data set [1], the “pH of solution within 3 minutes” value was more than 7.5. The “patients reporting chest tightness (bronchoconstriction response)” value in data set [2] is listed as “approximately 65%”. In data set [3] (setting [8]), the “average respirable fraction (particles from 1 micron to 6 microns)” value was found to be 58.77±2.03 percentage and the “mass median particle diameter of the aerosol” value turned out to be 4.11±0.29 microns. The molecule further registered an aerosolization time in data set [3] (4 mL of 20 mg/ml solution, mean) of 10.53 min. In data set [4], the “cases with nephrotoxicity symptoms” value is listed as “about 5%” and the “cases with neurotoxicity symptoms” value is listed as “about 29%”. The “eradication of Pseudomonas aeruginosa organism” value with Pseudomonas aeruginosa [5] (8 μg/mL, 4 hours of testing) is reported as “did not, even at 4 hours of testing, eradicate”. For the same molecule, in the data set on Pseudomonas aeruginosa [5] (16 μg/mL, at 3 hours), the “killing of test organism” value is given as “over 5 logs”. In addition, the “time at which over 5 logs killing was shown” value in the data set on Pseudomonas aeruginosa [5] (64 μg/mL) was found to be 1.5 hours. Besides, in the data set with Pseudomonas aeruginosa [5] (freshly dissolved), the “concentration required for similar level of killing (over 5 logs within 2 hours)” value is reported as 32 μg/ml. Further, in data set [6], the “drug converted to colistin in an hour” value was approximately 3%.
In the case of `NC[C@H]1O[C@H](O[C@H]2[C@H](O)[C@@H](O[C@H]3O[C@H](CO)[C@@H](O)[C@H](N)[C@H]3O)[C@H](N)C[C@@H]2N)[C@H](N)C[C@@H]1O` [tobramycin], in the data set with Pseudomonas aeruginosa [7], the “strains of Pseudomonas aeruginosa sensitive to treatment” value is “about 90%”.
